Experimental data from ChEMBL document CHEMBL3046431, “Novel 4H-1,2,4-triazol-3-yl cycloalkanols as potent antitubercular agents” (Med Chem Res, 2013).
Values after ≈ are worked out from the molar mass of the structure shown.

Legend:
[1] = Cytotoxicity against Chlorocebus aethiops (African green monkey) Vero C1008 cells assessed as cell viability after 72 hr by MTT assay; assay type: cell-based; details: chlorocebus sabaeus
[2] = system: Mycobacterium tuberculosis; assay: Antitubercular activity against Mycobacterium tuberculosis H37Rv assessed as growth inhibition after 7 days by resazurin microplate assay; assay type: functional; details: 168 h
[3] = Selectivity index, ratio of CC50 for african green monkey Vero C1008 cells to MIC for Mycobacterium tuberculosis H37Rv; assay type: toxicity, cell-based; details: read-out: Selectivity Index

Compound	CC50 at 72 h [1]	MIC [2]	selectivity ratio [3]
OC1CCC(C(O)c2nnc(-c3ccncc3)[nH]2)CC1O (stereo unspecified)	429 µg/mL (≈ 1480 µM)	0.9 µg/mL (≈ 3.1 µM)	477
OC(c1nnc(-c2cccnc2)[nH]1)C1CC=CCC1 (stereo unspecified)	371 µg/mL (≈ 1450 µM)	8.5 µg/mL (≈ 33.2 µM)	44
Cc1nnc(C2(O)CCCCC2)[nH]1	392 µg/mL (≈ 2160 µM)	6.25 µg/mL (≈ 34.5 µM)	63
OC1(c2nnc(-c3ccccc3)[nH]2)CCCCC1	422 µg/mL (≈ 1730 µM)	12.4 µg/mL (≈ 50.8 µM)	34
OC1(c2nnc(-c3cccnc3)[nH]2)CCCCC1	397 µg/mL (≈ 1630 µM)	4.5 µg/mL (≈ 18.4 µM)	88
Cc1nnc(C(O)C2CC=CCC2)[nH]1 (stereo unspecified)	318 µg/mL (≈ 1650 µM)	5.15 µg/mL (≈ 26.6 µM)	62
OC1(c2nnc(-c3ccncc3)[nH]2)CCCC1	382 µg/mL (≈ 1660 µM)	0.78 µg/mL (≈ 3.39 µM)	490
CC1CC(C)(C)CC(O)(c2nnc(-c3ccc(O)cc3)[nH]2)C1 (stereo unspecified)	352 µg/mL (≈ 1170 µM)	10.5 µg/mL (≈ 34.8 µM)	33
CC1CC(C)(C)CC(O)(c2nnc(-c3cccnc3)[nH]2)C1 (stereo unspecified)	368 µg/mL (≈ 1290 µM)	12.5 µg/mL (≈ 43.6 µM)	29
OC1CCC(C(O)c2nnc(-c3ccccc3)[nH]2)CC1O (stereo unspecified)	429 µg/mL (≈ 1480 µM)	7.75 µg/mL (≈ 26.8 µM)	55
CC1CC(C)(C)CC(O)(c2nnc(-c3ccncc3)[nH]2)C1 (stereo unspecified)	414 µg/mL (≈ 1450 µM)	0.65 µg/mL (≈ 2.27 µM)	637
Cc1csc(-c2nnc(C3(O)C4CC5CC(C4)CC3C5)[nH]2)c1 (stereo unspecified)	356 µg/mL (≈ 1130 µM)	4.25 µg/mL (≈ 13.5 µM)	84
CC1CC(C)(C)CC(O)(c2nnc(-c3ccccc3)[nH]2)C1 (stereo unspecified)	383 µg/mL (≈ 1340 µM)	15.4 µg/mL (≈ 53.8 µM)	25
CC1CCC(O)(c2nnc(-c3ccncc3)[nH]2)CC1 (stereo unspecified)	403 µg/mL (≈ 1560 µM)	0.95 µg/mL (≈ 3.68 µM)	424
Cc1csc(-c2nnc(C3(O)CCCCC3)[nH]2)c1	373 µg/mL (≈ 1420 µM)	1.65 µg/mL (≈ 6.27 µM)	226
Cc1nnc(C2(O)CC(C)CC(C)(C)C2)[nH]1 (stereo unspecified)	380 µg/mL (≈ 1700 µM)	4.5 µg/mL (≈ 20.2 µM)	84
NNC(=O)c1ccncc1 [ISONIAZID]	–	0.4 µg/mL (≈ 2.92 µM)	499
Oc1ccc(-c2nnc(C3(O)CCCCC3)[nH]2)cc1	340 µg/mL (≈ 1310 µM)	7.5 µg/mL (≈ 28.9 µM)	45
OC(c1nnc(-c2ccccc2)[nH]1)C1CC=CCC1 (stereo unspecified)	358 µg/mL (≈ 1400 µM)	12.5 µg/mL (≈ 49 µM)	29
OC(c1nnc(-c2ccncc2)[nH]1)C1CC=CCC1 (stereo unspecified)	388 µg/mL (≈ 1510 µM)	1.25 µg/mL (≈ 4.88 µM)	310
CC1CCC(O)(c2nnc(-c3ccccc3)[nH]2)CC1 (stereo unspecified)	437 µg/mL (≈ 1700 µM)	15.5 µg/mL (≈ 60.2 µM)	28
Oc1ccc(-c2nnc(C3(O)CCCC3)[nH]2)cc1	347 µg/mL (≈ 1410 µM)	3.2 µg/mL (≈ 13 µM)	108
OC1(c2nnc(-c3ccncc3)[nH]2)CCCCC1	412 µg/mL (≈ 1690 µM)	0.59 µg/mL (≈ 2.42 µM)	698
Cc1nnc(C(O)C2CCC(O)C(O)C2)[nH]1 (stereo unspecified)	378 µg/mL (≈ 1660 µM)	3.25 µg/mL (≈ 14.3 µM)	116
